Data published in patent US20110071124A1, “Compounds that Inhibit Production of sAPPB and AB and Uses Thereof” (The Trustees of Columbia University in the City of New York, priority 2008, published 2011).

Columns and labels:
[1] = tested on: brain total Aβ40; assay: brain total Aβ40 in Tg2576 mice after intraperitoneal injection; type: in vivo; conditions: 3 mg/kg intraperitoneal, 1 injection per day for 9 days, 12- to 13-month old Tg2576 mice; p value greater than 0.05
Description: FIG. 18. CNS-2 reduces brain total Aβ40 in Tg2576 mice. CNS-2 was dissolved in 0.9% normal saline solution with 1.9% DMSO. 12 month old Tg2576 APPsw transgenic mice were treated with 3 mg/kg CNS-2 via intraperitoneal injection at an injection volume of 20 μl per gram. 8 mice per group were treated for 9 days, 1 injection per day. Mice were sacrificed on day 9, 5 hours after the final injection. One hemisphere from each mouse was homogenized, and the homogenate was processed for formic acid extraction of plaque Aβ. After formic acid extraction, total Aβ40 was measured via ELISA kit (BioSource) and normalized to total protein.
A total of 16 mice were treated with either DMSO (n=8) or 3 mg/kg CNS-2 (n=8). The dosage was selected arbitrarily based on compound solubility in 0.9% normal saline. CNS-2 was dissolved in 0.9% normal saline solution with 1.9% final DMSO concentration. 12- to 13-month old Tg2576 mice were treated with DMSO or CNS-2 via intraperitoneal injection for 9 days (1 injection per day) at an injection volume of 20 μl per gram of weight. Mouse weight was monitored daily, and the total injection volume adjusted accordingly over the course of the 9-day treatment. […] Mice were sacrificed on day 9, 5 hours after the final injection. […] Total Aβ40 was determined by Aβ ELISA kit and normalized to total protein (FIG. 18).

[2] = tested on: sAPPβ in Lenti-APPsw infected primary cortical neurons; assay: sAPPβ IP-Western in Lenti-APPsw infected primary cortical neurons; type: cell-based, mouse; conditions: 20 μM, 24 hours, normalized to APP
Description: FIG. 15A-D. LDN-0057228 reduces Aβ40 and sAPPβ in primary neurons. DIV-14 primary cortical neurons from wild-type mice were incubated for 24 hours with primary culture media containing lentivirus harboring APPsw. After infection, neurons were incubated for 48 hours with 1:1 fresh to conditioned media to allow for APP expression. Neurons were then treated with LDN-0057228 at 20 μM for 24 hours in triplicate. A) Media was collected for Aβ40 ELISA. Raw Aβ40 values were normalized to APP to control for variations in lentiviral infection efficiency. B) Cell lysates were probed with 6E10 antibody to visualize the transduced full-length APP. C) sAPPβ from neuron culture media was immunoprecipitated with sβsw antibody and probed with LN27. D) Quantification of sAPPβ, normalized to APP. Data in A) and […]) represent mean+s.d. of 3 wells. Bands from B) and C) were quantified using ImageJ software.
Using this experimental paradigm, LDN-0057228 was tested at 20 μM concentration to confirm the sAPPβ- and Aβ-lowering activity of the compound (FIG. 15). The protocol was modified slightly to allow for 24-hour compound treatment. […]
LDN-0057228 caused a 75% reduction in Aβ40 levels (p<0.05) in primary neurons (FIG. 15A). […] The sAPPβ bands were quantified using ImageJ software and normalized to APP, showing a 40% reduction in sAPPβ (p<0.01) for the treated neurons (FIG. 15D).

Row | SMILES | reduction of brain total Aβ40 [1] | reduction in sAPPβ [2]
1 | O=C(CCc1ccccc1)NC[C@@H]1CCCN1CCOC(c1ccc(F)cc1)c1ccc(F)cc1 [CNS-2] | 30% | –
2 | Fc1ccc(C(OCCN2CCC[C@H]2CNCCc2ccccc2)c2ccc(F)cc2)cc1 [LDN-0057228] | – | 40%
